Data taken from patent US4166911A, “Pyridazinyl-ergoline compounds having neuroleptic activity” (Farmitalia Carlo Erba S.p.A., priority 1977, dated 1979).

Legend:
[1] = tested on: aggregated mice; assay: protection of aggregated mice from amphetamine toxicity (death rate after 24 hours); conditions: Mus musculus, ip
[2] = tested on: aggregated mice; conditions: result in words, literature; cited from earlier work

Row | Compound | ED50 [1] | reduction of amphetamine toxicity in aggregated mice [2]
1 | COC12C[C@@H](CNc3ccc(Cl)nn3)CN(C)[C@@H]1Cc1cn(C)c3cccc2c13 (stereo partly drawn) [355/902, 10-Methoxy-8β-(6'-chloro-3'-pyridazinylaminomethyl)-1,6-dimethyl-ergoline] | 16.4 mg/kg | 
2 | COc1ccc(NC[C@H]2CN(C)[C@@H]3Cc4cn(C)c5cccc(c45)C3(OC)C2)nn1 (stereo partly drawn) [/903, 10-Methoxy-8β-(6'-methoxy-3'-pyridazinylaminomethyl)-1,6-dimethylergoline] | 30 mg/kg | 
3 | COC12C[C@@H](CNc3cccnn3)CN(C)[C@@H]1Cc1cn(C)c3cccc2c13 (stereo partly drawn) [/904, 10-Methoxy-8β-(3'-pyridazinylaminomethyl)-1,6-dimethylergoline] | 30 mg/kg | 
4 | COC12C[C@@H](CSc3ccc(O)nn3)CN(C)[C@@H]1Cc1cn(C)c3cccc2c13 (stereo partly drawn) [/914, 10-Methoxy-1,6-dimethyl-8β-(6'-hydroxy-3'-pyridazinylmercaptomethyl)ergoline] | 16.7 mg/kg | 
5 | COC12C[C@@H](CSc3cccnn3)CN(C)[C@@H]1Cc1cn(C)c3cccc2c13 (stereo partly drawn) [/927, 10-Methoxy-1,6-dimethyl-8β-(3'-pyridazinylmercaptomethyl)ergoline] | 30 mg/kg | 
6 | CN(C)CCCN1c2ccccc2Sc2ccc(Cl)cc21 [chlorpromazine] |  | clearly reduce the amphetamine toxicity in aggregated mice
